Laboratory results: patent US20230263822A1, “MODULATION OF FACTOR 11 EXPRESSION” (Ionis Pharmaceuticals, Inc., priority 2008, published 2023)
Strand notation (5' to 3'): a small letter for the sugar, then the base; units joined by * are phosphorothioate-linked, units joined directly phosphodiester-linked; [ ] holds rarer units or linkages, { } end groups; capitals alone tell only the bases. e = 2'-O-(2-methoxyethyl) (MOE); [5mC] = 5-methylcytosine; d = 2'-deoxy (DNA)

Legend:
Factor 11 protein = Factor 11 protein in monkey plasma by sandwich ELISA (Example 46); type: in vivo, cynomolgus monkeys; details: 25 mg/kg subcutaneously
Protocol: (§1) Groups, each consisting of two male and two female monkeys, were injected subcutaneously with 25 mg/kg of ISIS 416850, ISIS 449709, ISIS 445522, ISIS 449710, ISIS 449707, ISIS 449711, ISIS 449708, 416858, and ISIS 445531. Antisense oligonucleotide was administered to the monkeys at 25 mg/kg three times per week for week 1 and 25 mg/kg twice per week for weeks 2 to 8. A control group, consisting of two male and two female monkeys was injected subcutaneously with PBS according to the same dosing regimen. Body weights were taken 14 days and 7 days before the start of treatment and were then measured weekly throughout the treatment period. Blood samples were collected 14 days and 5 days before the start of treatment and subsequently several times during the dosing regimen for PT and aPTT measurements, and measurement of various hematologic factors. On day 55, the monkeys were euthanized by exsanguination while under deep anesthesia, and organs harvested for further analysis.
Plasma samples from all monkey groups taken on different days were analyzed by a sandwich-style ELISA assay (Affinity Biologicals Inc.) using an affinity-purified polyclonal anti-Factor 11 antibody as the capture antibody and a peroxidase-conjugated polyclonal anti-Factor 11 antibody as the detecting antibody. Monkey plasma was diluted 1:50 for the assay. Peroxidase activity was expressed by incubation with the substrate o-phenylenediamine. The color produced was quantified using a microplate reader at 490 nm and was considered to be proportional to the concentration of Factor 11 in the samples.
The results are presented in Table 147, expressed as percentage reduction relative to that of the PBS control.

blood coagulation = assay: PT and aPTT assay in cynomolgus monkeys (Example 46); type: in vivo; details: platelet poor plasma, relative to PBS group
Protocol: as §1
PT and aPTT were measured using platelet poor plasma (PPP) from […] treated with ISIS oligonucleotides. PT and aPTT values are provided in Tables 148 and 149 and are reported as International Normalized Ratio (INR) values. INR values for PT and aPTT were determined by dividing the PT or aPTT value for each experimental group by the PT or aPTT for the PBS treated group. This ratio was then raised to the power of the International Sensitivity Index (ISI) of the tissue factor used. […] Therefore, antisense reduction of Factor 11 with these ISIS oligonucleotides is useful for inhibiting the formation of a thrombus or clot in response to an abnormal vessel wall, but not in response to tissue injury.

Substance: 445522 (antisense eG*e[5mC]*eA*e[5mC]*eA*dG*dT*dT*dT*d[5mC]*dT*dG*dG*e[5mC]*eA*eG*eG*e[5mC]) [compound 445522]
- Inhibition of Factor 11 protein relative to the PBS control (percentage reduction) (Factor 11 protein; Day 10, plasma): 36%
- Inhibition of Factor 11 protein relative to the PBS control (percentage reduction) (Factor 11 protein; Day 17, plasma): 50%
- Inhibition of Factor 11 protein relative to the PBS control (percentage reduction) (Factor 11 protein; Day 24, plasma): 61%
- Inhibition of Factor 11 protein relative to the PBS control (percentage reduction) (Factor 11 protein; Day 31, plasma): 70%
- Inhibition of Factor 11 protein relative to the PBS control (percentage reduction) (Factor 11 protein; Day 38, plasma): 73%
- Inhibition of Factor 11 protein relative to the PBS control (percentage reduction) (Factor 11 protein; Day 45, plasma): 77%
- Inhibition of Factor 11 protein relative to the PBS control (percentage reduction) (Factor 11 protein; Day 52, plasma): 80%
- Inhibition of Factor 11 protein relative to the PBS control (percentage reduction) (Factor 11 protein; Day 55, plasma): 82%
- Inhibition of Factor 11 protein relative to the PBS control (percentage reduction) (Factor 11 protein; Day −5, plasma): 0%
- Inhibition of Factor 11 protein relative to the PBS control (percentage reduction) (Factor 11 protein; Day −14, plasma): 2%

Substance: 445531 (antisense eG*eG*e[5mC]*eA*eT*dT*dG*dG*dT*dG*d[5mC]*dA*d[5mC]*eA*eG*eT*eT*eT) [compound 445531]
- Inhibition of Factor 11 protein relative to the PBS control (percentage reduction) (Factor 11 protein; Day 10, plasma): 9%
- Inhibition of Factor 11 protein relative to the PBS control (percentage reduction) (Factor 11 protein; Day 17, plasma): 22%
- Inhibition of Factor 11 protein relative to the PBS control (percentage reduction) (Factor 11 protein; Day 24, plasma): 23%
- Inhibition of Factor 11 protein relative to the PBS control (percentage reduction) (Factor 11 protein; Day 31, plasma): 27%
- Inhibition of Factor 11 protein relative to the PBS control (percentage reduction) (Factor 11 protein; Day 38, plasma): 29%
- Inhibition of Factor 11 protein relative to the PBS control (percentage reduction) (Factor 11 protein; Day 45, plasma): 32%
- Inhibition of Factor 11 protein relative to the PBS control (percentage reduction) (Factor 11 protein; Day 52, plasma): 32%
- Inhibition of Factor 11 protein relative to the PBS control (percentage reduction) (Factor 11 protein; Day 55, plasma): 37%
- Inhibition of Factor 11 protein relative to the PBS control (percentage reduction) (Factor 11 protein; Day −5, plasma): 1%
- Inhibition of Factor 11 protein relative to the PBS control (percentage reduction) (Factor 11 protein; Day −14, plasma): 0%

Substance: ISIS 445531: 5-8-5 or 6-8-6 MOE microwalk gapmer (Table 44) (antisense eG*eG*e[5mC]*eA*eT*dT*dG*dG*dT*dG*d[5mC]*dA*d[5mC]*eA*eG*eT*eT*eT)
- PT ratio (INR) (blood coagulation; Day 10): 1.00
- aPTT ratio relative to PBS group (blood coagulation; Day 10): 0.95
- PT ratio (INR) (blood coagulation; Day 17): 1.06
- aPTT ratio relative to PBS group (blood coagulation; Day 17): 1.05
- PT ratio (INR) (blood coagulation; Day 24): 1.02
- aPTT ratio relative to PBS group (blood coagulation; Day 24): 1.00
- PT ratio (INR) (blood coagulation; Day 31): 1.04
- aPTT ratio relative to PBS group (blood coagulation; Day 31): 1.07
- PT ratio (INR) (blood coagulation; Day 38): 1.03
- aPTT ratio relative to PBS group (blood coagulation; Day 38): 1.06
- PT ratio (INR) (blood coagulation; Day 45): 1.01
- aPTT ratio relative to PBS group (blood coagulation; Day 45): 1.13
- PT ratio (INR) (blood coagulation; Day 52): 1.04
- aPTT ratio relative to PBS group (blood coagulation; Day 52): 1.15
- PT ratio (INR) (blood coagulation; Day 55): 1.06
- aPTT ratio relative to PBS group (blood coagulation; Day 55): 1.19
- PT ratio (INR) (blood coagulation; Day −5): 1.00
- aPTT ratio relative to PBS group (blood coagulation; Day −5): 0.89
- PT ratio (INR) (blood coagulation; Day −14): 1.06
- aPTT ratio relative to PBS group (blood coagulation; Day −14): 1.00

Substance: ISIS 449707: 3-8-3, 4-8-4, 2-10-2, 3-10-3 or 4-10-4 MOE microwalk gapmer (Table 46) (antisense e[5mC]*eA*e[5mC]*eA*dG*dT*dT*dT*d[5mC]*dT*dG*dG*e[5mC]*eA*eG*eG)
- PT ratio (INR) (blood coagulation; Day 10): 0.95
- aPTT ratio relative to PBS group (blood coagulation; Day 10): 0.92
- PT ratio (INR) (blood coagulation; Day 17): 0.97
- aPTT ratio relative to PBS group (blood coagulation; Day 17): 0.94
- PT ratio (INR) (blood coagulation; Day 24): 0.95
- aPTT ratio relative to PBS group (blood coagulation; Day 24): 0.93
- PT ratio (INR) (blood coagulation; Day 31): 0.96
- aPTT ratio relative to PBS group (blood coagulation; Day 31): 0.95
- PT ratio (INR) (blood coagulation; Day 38): 1.00
- aPTT ratio relative to PBS group (blood coagulation; Day 38): 0.99
- PT ratio (INR) (blood coagulation; Day 45): 0.96
- aPTT ratio relative to PBS group (blood coagulation; Day 45): 1.00
- PT ratio (INR) (blood coagulation; Day 52): 0.96
- aPTT ratio relative to PBS group (blood coagulation; Day 52): 0.99
- PT ratio (INR) (blood coagulation; Day 55): 1.00
- aPTT ratio relative to PBS group (blood coagulation; Day 55): 1.04
- PT ratio (INR) (blood coagulation; Day −5): 0.94
- aPTT ratio relative to PBS group (blood coagulation; Day −5): 0.87
- PT ratio (INR) (blood coagulation; Day −14): 1.01
- aPTT ratio relative to PBS group (blood coagulation; Day −14): 0.90

Substance: ISIS 449708: 3-8-3, 4-8-4, 2-10-2, 3-10-3 or 4-10-4 MOE microwalk gapmer (Table 46) (antisense eA*e[5mC]*eA*dG*dT*dT*dT*d[5mC]*dT*dG*dG*e[5mC]*eA*eG)
- PT ratio (INR) (blood coagulation; Day 10): 0.98
- aPTT ratio relative to PBS group (blood coagulation; Day 10): 1.06
- PT ratio (INR) (blood coagulation; Day 17): 1.00
- aPTT ratio relative to PBS group (blood coagulation; Day 17): 1.05
- PT ratio (INR) (blood coagulation; Day 24): 0.95
- aPTT ratio relative to PBS group (blood coagulation; Day 24): 1.01
- PT ratio (INR) (blood coagulation; Day 31): 1.06
- aPTT ratio relative to PBS group (blood coagulation; Day 31): 1.09
- PT ratio (INR) (blood coagulation; Day 38): 0.99
- aPTT ratio relative to PBS group (blood coagulation; Day 38): 1.06
- PT ratio (INR) (blood coagulation; Day 45): 0.99
- aPTT ratio relative to PBS group (blood coagulation; Day 45): 1.06
- PT ratio (INR) (blood coagulation; Day 52): 0.99
- aPTT ratio relative to PBS group (blood coagulation; Day 52): 1.08
- PT ratio (INR) (blood coagulation; Day 55): 1.04
- aPTT ratio relative to PBS group (blood coagulation; Day 55): 1.11
- PT ratio (INR) (blood coagulation; Day −5): 0.95
- aPTT ratio relative to PBS group (blood coagulation; Day −5): 1.01
- PT ratio (INR) (blood coagulation; Day −14): 1.03
- aPTT ratio relative to PBS group (blood coagulation; Day −14): 1.07

Substance: ISIS 449710: 3-8-3, 4-8-4, 2-10-2, 3-10-3 or 4-10-4 MOE microwalk gapmer (Table 46) (antisense e[5mC]*eA*e[5mC]*dA*dG*dT*dT*dT*d[5mC]*dT*dG*dG*d[5mC]*eA*eG*eG)
- PT ratio (INR) (blood coagulation; Day 10): 0.98
- aPTT ratio relative to PBS group (blood coagulation; Day 10): 1.00
- PT ratio (INR) (blood coagulation; Day 17): 1.00
- aPTT ratio relative to PBS group (blood coagulation; Day 17): 0.97
- PT ratio (INR) (blood coagulation; Day 24): 0.97
- aPTT ratio relative to PBS group (blood coagulation; Day 24): 1.00
- PT ratio (INR) (blood coagulation; Day 31): 0.98
- aPTT ratio relative to PBS group (blood coagulation; Day 31): 1.04
- PT ratio (INR) (blood coagulation; Day 38): 0.99
- aPTT ratio relative to PBS group (blood coagulation; Day 38): 1.02
- PT ratio (INR) (blood coagulation; Day 45): 0.97
- aPTT ratio relative to PBS group (blood coagulation; Day 45): 1.06
- PT ratio (INR) (blood coagulation; Day 52): 0.98
- aPTT ratio relative to PBS group (blood coagulation; Day 52): 1.03
- PT ratio (INR) (blood coagulation; Day 55): 1.06
- aPTT ratio relative to PBS group (blood coagulation; Day 55): 1.07
- PT ratio (INR) (blood coagulation; Day −5): 0.96
- aPTT ratio relative to PBS group (blood coagulation; Day −5): 0.98
- PT ratio (INR) (blood coagulation; Day −14): 1.03
- aPTT ratio relative to PBS group (blood coagulation; Day −14): 1.07

Substance: ISIS 449711: 3-8-3, 4-8-4, 2-10-2, 3-10-3 or 4-10-4 MOE microwalk gapmer (Table 46) (antisense eA*e[5mC]*dA*dG*dT*dT*dT*d[5mC]*dT*dG*dG*d[5mC]*eA*eG)
- PT ratio (INR) (blood coagulation; Day 10): 0.94
- aPTT ratio relative to PBS group (blood coagulation; Day 10): 0.92
- PT ratio (INR) (blood coagulation; Day 17): 0.95
- aPTT ratio relative to PBS group (blood coagulation; Day 17): 0.90
- PT ratio (INR) (blood coagulation; Day 24): 0.94
- aPTT ratio relative to PBS group (blood coagulation; Day 24): 0.92
- PT ratio (INR) (blood coagulation; Day 31): 0.98
- aPTT ratio relative to PBS group (blood coagulation; Day 31): 0.89
- PT ratio (INR) (blood coagulation; Day 38): 1.02
- aPTT ratio relative to PBS group (blood coagulation; Day 38): 0.93
- PT ratio (INR) (blood coagulation; Day 45): 1.01
- aPTT ratio relative to PBS group (blood coagulation; Day 45): 0.94
- PT ratio (INR) (blood coagulation; Day 52): 1.00
- aPTT ratio relative to PBS group (blood coagulation; Day 52): 0.92
- PT ratio (INR) (blood coagulation; Day 55): 1.07
- aPTT ratio relative to PBS group (blood coagulation; Day 55): 0.96
- PT ratio (INR) (blood coagulation; Day −5): 0.95
- aPTT ratio relative to PBS group (blood coagulation; Day −5): 0.96
- PT ratio (INR) (blood coagulation; Day −14): 1.00
- aPTT ratio relative to PBS group (blood coagulation; Day −14): 0.94
